System: patients with advanced or metastatic solid tumors
Test: Trial 1403-0001 dose finding: MTD/RDE, BLRM analysis with overdose control (EWOC)
Type: in vivo
Conditions: for N of evaluable patients with events of interests: all cycles
Excerpt: Preliminary pharmacokinetic (PK) data were also used as supportive information for the dose decision.

Cc1c(C(=O)O)ccc2c3n(nc12)[C@@H]1[C@H](C3)N(CC2CC2)[C@@]2(C(=O)Nc3cc(Cl)ccc32)[C@H]1c1cccc(Cl)c1F [MDM2-antagonist of formula I, (2′S,3′S,3a'S,10a'S)-6-chloro-3′-(3-chloro-2-fluorophenyl)-1′-(cyclopropylmethyl)-6′-methyl-2-oxo-1,2,3′,3a′,10′,10a′-hexahydro-1′H-spiro[indole-3,2′-pyrrolo[2′,3′:4,5]pyrrolo[1,2-b]indazole]-7′-carboxylic acid]
N of evaluable patients with events of interests (Arm A, 10 mg (1 evaluable)): 1
N of evaluable patients with events of interests (Arm A, 20 mg (2 evaluable)): 1
N of evaluable patients with events of interests (Arm A, 30 mg (3 evaluable)): 1
N of evaluable patients with events of interests (Arm A, 45 mg (6 evaluable)): 1
N of evaluable patients with events of interests (Arm A, 50 mg (4 evaluable)): 1
N of evaluable patients with events of interests (Arm A, 60 mg (7 evaluable)): 2
N of evaluable patients with events of interests (Arm A, 80 mg (6 evaluable)): 5
highest dose level that fulfilled the EWOC criterion from the additional BLRM analysis (Arm A, events of interest during the entire treatment period): 45 mg
Maximum Tolerated Dose (MTD) (monotherapy, Arm A D1 q3w): 60 mg
Recommended Dose for Expansion (RDE) (monotherapy, Arm A D1 q3w): 45 mg
Maximum Tolerated Dose (MTD) (monotherapy, Arm B D1 D8 q4w): 45 mg
